{"source": "patent US20220000860A1", "about": "“COMPOUNDS, COMPOSITIONS, AND METHODS FOR TREATING HUMAN IMMUNODEFICIENCY VIRUS” (OYAGEN, INC., priority 2017, published 2022)", "key": {"[1]": {"target": "T1, pNL4-3 Vif (Vif multimerization) (Human immunodeficiency virus type 1 group M subtype B, UniProt P12504)", "T1 construct": "expressed in transfected cells; host or cells: HEK293T", "T1 sequence (P12504 whole entry)": "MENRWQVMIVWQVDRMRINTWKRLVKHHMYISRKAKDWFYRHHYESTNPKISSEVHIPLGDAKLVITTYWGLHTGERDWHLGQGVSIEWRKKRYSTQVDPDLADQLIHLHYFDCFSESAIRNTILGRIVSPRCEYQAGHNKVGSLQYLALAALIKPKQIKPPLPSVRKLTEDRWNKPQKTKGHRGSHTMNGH", "test": "Vif FqRET Multimerization Assay", "format": "cell-based, HIV", "from_the_text": "The quenched fluorescence resonance energy transfer (FqRET) cell-based assay utilized expression of pNL4-3 Vif (accession no. M19921) tagged separately with either a EGFP fluorophore (EGFP-V5-Vif) or a REACh2 quencher (Vif-HA-REACh2) in the pIRES-P vector. The Vif multimerization assay was established through robotic co-transfection of HEK293T (293T) cells with Turbofect (Thermo) and optimized for input plasmid ratio (1:4, fluorophore to quencher) to achieve maximum quench of fluorescent signal. EGFP fluorescence was quantified 24 hours after transfection with a BioTek Synergy4 plate reader (ex=485 nm, em=528 nm) followed by the addition of 0-30 μM compound. The plates were read a second time 24 hours after compound addition. The differential between the first and second read in each well was quantified relative to the DMSO control to determine the change in relative fluorescence units (ΔRFU)\nThe interaction of 2 molecules of Vif (i.e. dimerization) enables quenching of Enhanced Green Fluorescent Protein (EGFP) signal by Resonance Energy Accepting Chromophore 2 (REACh2), a dark mutant of yellow fluorescent protein that is capable of accepting the EGFP donor fluorescence and quenching its signal without an acceptor signal."}, "[2]": {"test_system": "Vif-dependent APOBEC3G degradation", "test": "Vif-Dependent APOBEC3G Degradation Assay", "format": "cell-based, HIV", "description": "APOBEC3G-V5-mCherry was stably expressed from the pIRES-P vector in 293T cells under puromycin selection. Fifty ng of plasmid expressing Vif-HA (accession no. AB573087) was transfected into the cells in 384-well format with Turbofect on a liquid handling robot. Four hours after transfection the compounds were added to cells in a range from 0-15 μM. Twenty-four hours after compound addition mCherry fluorescence was read on a BioTek Synergy4 plate reader (ex=587 nm, em=610 nm). Relative fluorescence units (RFU) from compound treated wells were quantified using thresholds set by the −Vif (positive control) and +Vif (negative control)."}, "HIV-1 Integrase": {"target": "T2, HIV-1 Integrase (Human immunodeficiency virus type 1 group M subtype B, UniProt P12497)", "T2 construct": "the integrase assay was conducted using the XpressBio HIV-1 Integrase Assay Kit; purchased XpressBio", "test": "integrase assay (XpressBio HIV-1 Integrase Assay Kit)", "format": "biochemical", "description": "For the assays listed in Table I, the integrase assay was conducted using the XpressBio HIV-1 Integrase Assay Kit according to the manufacture's protocol. The protease assay was conducted with the Anthranilyl (Abz)-HIV Protease Substrate (Bachem H-2992), a hexapeptide FRET substrate derived from the p24/p15 cleavage site of the viral gag-pol poly-protein, which allows the screening of potential HIV protease inhibitors. 1 mM Abz-Substrate was diluted with Assay Buffer to a working stock of 20 μM. A 50 μM stock HIV-1 protease (received from Sook-kyung Lee (UNC)) was diluted with Assay Buffer (50 mM HEPES, pH 6.8, 150 mM NaCl, and 1% DMSO) to a working stock of 100 nM. 2 μl 100 nM HIV-1 Protease along with 2 uL 20 μM Abz Substrate was added into each well and incubated at room temperature (avoiding light) for 1 hour before being read on an Envision plate reader (Perkin Elmer) excitation at 280 nm, emission at >435 nm. The reverse transcriptase assay utilized purified recombinant HIV (pNL4-3) heterodimeric (p66/p51) Reverse Transcriptase (RT) that was purchased from a commercially available source. The assay was performed in 96-well filter plate, where RT activity was determined by the incorporation of radiolabeled deoxyribonucleotides into the newly synthesized DNA strand. The RT reaction mixture contained in vitro transcribed viral RNA derived from the HIV-1NL4-3 5′-LTR region (position 454 to 652) and primer that is complementary to the primer binding site (PBS, nucleotide residues nucleotides 636 to 652), radiolabeled deoxyribonucleotide, dNTPs and reverse transcriptase. Briefly, the reaction was carried out in a volume of 50 μl containing 50 mM Tris HCl, pH 7.8, 50 mM KCl, 5 mM MgCl2, 1 mM DTT, 50 μM each of dATP, dCTP, dGTP, 50 nM dTTP, 1 μCi of [^3H] dTTP (70-90 Ci/mM) and 5 nM template/primer. The reaction was initiated by the addition of 10 nM RT. For compound screening, serially diluted test articles were added to the reaction followed by the addition of RT. The reaction mixture was incubated at 37° C. for 1 h, and then quenched by the addition of ice-cold trichloroacetic acid (TCA) to the final concentration of 10%. The plate was incubated at 4° C. for 1 h to precipitate the synthesized DNA, then rinsed 3-times with 10% TCA and 1 time with 70% ethanol. After addition of 25 μl scintillation fluid to completely dried wells, radioactivity is counted by MicroBeta scintillation counter. The reduction of radioactivity represents the potency of compound inhibition."}, "[3]": {"test": "PBMC Acute Infection, cytotoxicity (CC50/CC90)", "format": "cell-based", "conditions": "human", "description": "(§1) PHA-stimulated cells from at least two normal donors were pooled (i.e. mixed together), diluted in fresh medium to a final concentration of 1×10^6 cells/mL, and plated in the interior wells of a 96-well round bottom microplate at 50 μL/well (5×10^4 cells/well). Pooling of mononuclear cells from more than one donor was used to minimize the variability observed between individual donors in quantitative and qualitative differences in HIV infection and overall response to the PHA and IL-2 of primary lymphocyte populations. Each plate contained virus control wells (cells plus virus) and experimental wells (drug plus cells plus virus) of either 00KE_KER2008 (Subtype A), IIIB (Subtype B), or 98US_MSC5016 (Subtype C). Test drug dilutions were prepared at a 2×concentration and 100 μL of each concentration was placed in appropriate wells. Fifty μL of a predetermined dilution of virus stock was placed in each test well (final MOI≅0.1). After this period, cell-free supernatant samples were collected for analysis of reverse transcriptase (RT) activity with an RT assay. […] In the Table below SI50=CC50/EC50 and SI90=CC90/EC90."}, "PBMCs": {"test_system": "PBMCs", "test": "PBMC Acute Infection, cytotoxicity (CC50/CC90)", "format": "cell-based", "description": "as §1"}, "[4]": {"conditions": "Human immunodeficiency virus 1, HEK-293T, 24 h, read-out: EC50, A3G Degradation Assay"}, "[5]": {"conditions": "Human immunodeficiency virus 1, read-out: A3G degradation at"}, "[6]": {"conditions": "PHA-stimulated PBMCs pooled from at least two normal donors, row of isolate 00KE-KER2008, subtype A"}, "[7]": {"conditions": "row of isolate 98US_MSC5016, subtype C"}, "[8]": {"conditions": "row of isolate 00KE-KER2008, subtype A"}}, "note": "Where two headings read alike, the source gives them in different places."}
{"molecule": "CCc1c2c(nc3ccc(N)cc13)-c1cc3c(c(=O)n1C2)CNC(=O)[C@]3(O)CC", "note": "[Compound O5-SN, (S)-9-Amino-4,11-diethyl-4-hydroxy-1,2-dihydroquinolino[2′,3′:3,4]pyrrolo[1,2-b][2,7]naphthyridine-3,14(4H,12H)-dione]", "values": [{"measurement": "EC50", "setting": "[1]", "result": 362, "unit": "nM"}, {"measurement": "Vif multimerization (result in words)", "setting": "[1]", "result": "block"}, {"measurement": "Vif-dependent A3G degradation (result in words)", "setting": "[2]", "result": "block"}, {"measurement": "EC50", "setting": "[2]; [4]", "result": 99, "unit": "nM"}, {"measurement": "EC50", "setting": "[2]; [5]", "result": 84, "unit": "nM"}, {"measurement": "IC50", "setting": "HIV-1 Integrase", "result": "> 100000", "unit": "nM"}, {"measurement": "activity against HIV integrase (result in words)", "setting": "HIV-1 Integrase", "result": "inactive"}, {"measurement": "CC50", "setting": "[3]; [6]", "result": 2530, "unit": "nM"}, {"measurement": "CC90", "setting": "[3]; [6]", "result": "> 100000", "unit": "nM"}, {"measurement": "CC50", "setting": "[3]; PHA-stimulated PBMCs pooled from at least two normal donors, row of isolate 98US_MSC5016, subtype C", "result": 2530, "unit": "nM"}, {"measurement": "CC50", "setting": "[3]; PHA-stimulated PBMCs pooled from at least two normal donors, row of isolate IIIB, subtype B", "result": 6290, "unit": "nM"}, {"measurement": "CC90", "setting": "PBMCs; [7]", "result": "> 100000", "unit": "nM"}, {"measurement": "CC90", "setting": "PBMCs; row of isolate IIIB, subtype B", "result": "> 100000", "unit": "nM"}]}
{"molecule": "CCc1c2c(nc3ccc(O)cc13)-c1cc3c(c(=O)n1C2)CNC(=O)[C@]3(O)CC", "note": "[SN38-L, (S)-4,11-Diethyl-4,9-dihydroxy-1,2-dihydroquinolino[2′,3′:3,4]pyrrolo[1,2-b][2,7]naphthyridine-3,14(4H,12H)-dione]", "values": [{"measurement": "EC50", "setting": "[1]", "result": 378, "unit": "nM"}, {"measurement": "Vif multimerization (result in words)", "setting": "[1]", "result": "block"}, {"measurement": "Vif-dependent A3G degradation (result in words)", "setting": "[2]", "result": "block"}, {"measurement": "EC50", "setting": "[2]; [4]", "result": 84, "unit": "nM"}, {"measurement": "EC50", "setting": "[2]; [5]", "result": 99, "unit": "nM"}, {"measurement": "IC50", "setting": "HIV-1 Integrase", "result": "> 100000", "unit": "nM"}, {"measurement": "activity against HIV integrase (result in words)", "setting": "HIV-1 Integrase", "result": "inactive"}, {"measurement": "CC50", "setting": "[3]; [8]", "result": 1180, "unit": "nM"}, {"measurement": "CC90", "setting": "[3]; [8]", "result": 27900, "unit": "nM"}, {"measurement": "CC50", "setting": "[3]; [7]", "result": 1180, "unit": "nM"}, {"measurement": "CC50", "setting": "[3]; row of isolate IIIB, subtype B", "result": 5790, "unit": "nM"}]}
